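48-hour exposure; five concentrations; linearly interpolated endpoints. GI50: concentration for 50% inhibition of growth.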 Calls of active or inactive are those of the source. Rule as the data show it: active = GI50 up to about 1.1 µM and inactive = higher. Where a SMILES comes first, the peptide text is derived from it. The star is where a group is joined. Boc = CC(C)(C)OC(=O)*
Tests used:
Assay in all cases: DTP human tumour cell line panel, 48 h
MCF7 = test system: MCF7
EKVX = test system: EKVX
OVCAR-5 = test system: OVCAR-5
HT-29 = test system: HT-29
NCI/ADR-RES = test system: NCI/ADR-RES
TK-10 = test system: TK-10
SK-MEL-28 = test system: SK-MEL-28
UACC-62 = test system: UACC-62
HOP-92 = test system: HOP-92
SNB-19 = test system: SNB-19
NCI-H23 = test system: NCI-H23
SK-MEL-5 = test system: SK-MEL-5
NCI-H460 = test system: NCI-H460
HCT-15 = test system: HCT-15
CAKI-1 = test system: CAKI-1
OVCAR-4 = test system: OVCAR-4
RPMI-8226 = test system: RPMI-8226
RXF 393 = test system: RXF 393
SR = test system: SR

Row | SMILES | GI50 (MCF7) | GI50 (EKVX) | GI50 (OVCAR-5) | GI50 (HT-29) | GI50 (NCI/ADR-RES) | GI50 (TK-10) | GI50 (SK-MEL-28) | GI50 (UACC-62) | GI50 (HOP-92) | GI50 (SNB-19) | GI50 (NCI-H23) | GI50 (SK-MEL-5) | GI50 (NCI-H460) | GI50 (HCT-15) [µM] | GI50 (CAKI-1) | GI50 (OVCAR-4) | GI50 (RPMI-8226) | GI50 (RXF 393) | GI50 (SR)
1 | CC1=CC(=O)/C(=C/Nc2nc(-c3cccc([N+](=O)[O-])c3)cs2)C(=O)O1 | 41.6 µM (inactive) | 39.4 µM (inactive) | > 100 µM (inactive) | 89.9 µM (inactive) | 44.4 µM (inactive) | 1.93 µM (inactive) | > 100 µM (inactive) | 32.5 µM (inactive) | > 100 µM (inactive) | > 100 µM (inactive) | 60.5 µM (inactive) | 54.2 µM (inactive) | > 100 µM (inactive) | 23 | 24.8 µM (inactive) | > 100 µM (inactive) |  |  | 
2 | O=CN1CCN(C(=O)c2ccc(Cl)cc2)C1=S | 2.79 µM (inactive) | 15.6 µM (inactive) | 17.4 µM (inactive) | 17.2 µM (inactive) | 36.5 µM (inactive) | 15 µM (inactive) | 19.1 µM (inactive) | 15.9 µM (inactive) | 0.714 µM (active) | 15.6 µM (inactive) | 23 µM (inactive) |  | 21.6 µM (inactive) | 21.3 | 14.1 µM (inactive) | 17.3 µM (inactive) | 3.35 µM (inactive) | 16.8 µM (inactive) | 
3 | O=C1[C@@H]2C(c3ccccc3[N+](=O)[O-])=NO[C@@H]2C(=O)N1c1ccc(Cc2ccc(N3C(=O)[C@H]4C(c5ccccc5[N+](=O)[O-])=NO[C@H]4C3=O)cc2)cc1 |  | > 100 µM (inactive) | > 100 µM (inactive) | > 100 µM (inactive) |  | > 100 µM (inactive) | > 100 µM (inactive) | > 100 µM (inactive) | > 100 µM (inactive) | > 100 µM (inactive) | > 100 µM (inactive) | > 100 µM (inactive) | > 100 µM (inactive) | > 100 | > 100 µM (inactive) | > 100 µM (inactive) | > 100 µM (inactive) | > 100 µM (inactive) | > 100 µM (inactive)
4 | CCOc1ccc(/N=C(/NC(=O)c2ccccc2)SC)cc1 |  | > 100 µM (inactive) | > 100 µM (inactive) | > 100 µM (inactive) |  | > 100 µM (inactive) | > 100 µM (inactive) | > 100 µM (inactive) | > 100 µM (inactive) | > 100 µM (inactive) | > 100 µM (inactive) | > 100 µM (inactive) | > 100 µM (inactive) | > 100 | > 100 µM (inactive) | > 100 µM (inactive) | > 100 µM (inactive) | > 100 µM (inactive) | > 100 µM (inactive)
5 | O/N=C(\C=N\O)c1ccc2c(c1)Sc1ccccc1O2 | 16.9 µM (inactive) | 16.5 µM (inactive) | 31.7 µM (inactive) | 21.4 µM (inactive) |  | 31.4 µM (inactive) | 30.5 µM (inactive) | 18.1 µM (inactive) | 15.6 µM (inactive) | 24.2 µM (inactive) | 21.6 µM (inactive) |  | 23.7 µM (inactive) | 25.9 | 23.8 µM (inactive) | 25.1 µM (inactive) | 12.2 µM (inactive) | 15.8 µM (inactive) | 19.7 µM (inactive)
6 | O=C(Nc1cc(Cl)c(Cl)cc1Cl)C(=O)C1C=CCS1(=O)=O (configuration not stated) |  | > 100 µM (inactive) | > 100 µM (inactive) | > 100 µM (inactive) |  | > 100 µM (inactive) | > 100 µM (inactive) | > 100 µM (inactive) | 26.8 µM (inactive) | > 100 µM (inactive) | > 100 µM (inactive) | > 100 µM (inactive) | > 100 µM (inactive) | > 100 | > 100 µM (inactive) | > 100 µM (inactive) | > 100 µM (inactive) | > 100 µM (inactive) | > 100 µM (inactive)
7 | NC(=O)NNC(=O)c1nc[nH]c1[N+](=O)[O-] | > 100 µM (inactive) | > 100 µM (inactive) | > 100 µM (inactive) | > 100 µM (inactive) | > 100 µM (inactive) | > 100 µM (inactive) | > 100 µM (inactive) | > 100 µM (inactive) |  |  | > 100 µM (inactive) | > 100 µM (inactive) | > 100 µM (inactive) | > 100 | > 100 µM (inactive) | > 100 µM (inactive) | > 100 µM (inactive) | > 100 µM (inactive) | 
8 | O=C1C(Cl)=C(NCCCN2CCOCC2)C(=O)c2c(O)ccc(O)c21 | 1.55 µM (inactive) | 1 µM (active) | 1.71 µM (inactive) | 2.75 µM (inactive) |  | 6.28 µM (inactive) | 1.77 µM (inactive) | 1.77 µM (inactive) |  | 1.66 µM (inactive) | 1.75 µM (inactive) | 1.1 µM (active) | 3.13 µM (inactive) | 1.26 |  |  | 0.0598 µM (active) | 1.75 µM (inactive) | 2.58 µM (inactive)
9 | CCC(C)(C)/C(CC(O)(C(F)(F)F)C(F)(F)F)=N\O |  | > 100 µM (inactive) | > 100 µM (inactive) | > 100 µM (inactive) | > 100 µM (inactive) | > 100 µM (inactive) | > 100 µM (inactive) | > 100 µM (inactive) | > 100 µM (inactive) | > 100 µM (inactive) | > 100 µM (inactive) | > 100 µM (inactive) | > 100 µM (inactive) | > 100 | > 100 µM (inactive) | > 100 µM (inactive) | > 100 µM (inactive) | > 100 µM (inactive) | > 100 µM (inactive)
10 | CC1=CCC(C(C)(C)NC(=O)c2ccccc2)C/C1=N/O (configuration not stated) | > 100 µM (inactive) | > 100 µM (inactive) | > 100 µM (inactive) | > 100 µM (inactive) |  | > 100 µM (inactive) | > 100 µM (inactive) | > 100 µM (inactive) | 43.3 µM (inactive) | > 100 µM (inactive) | > 100 µM (inactive) | > 100 µM (inactive) | > 100 µM (inactive) | > 100 |  | > 100 µM (inactive) |  |  | 
11 | O=C(/N=N/c1ccc([N+](=O)[O-])cc1)NNc1ccc([N+](=O)[O-])cc1 | 4.58 µM (inactive) |  | 14.5 µM (inactive) | 31.3 µM (inactive) |  | 20.1 µM (inactive) | 16.4 µM (inactive) | 10.3 µM (inactive) |  | 27 µM (inactive) | 15.5 µM (inactive) | 13.9 µM (inactive) | 19.6 µM (inactive) | 19.2 | 18.9 µM (inactive) | 18.1 µM (inactive) | 14.3 µM (inactive) |  | 15.4 µM (inactive)
12 | O=c1oc(-c2ccc(O)cc2)cc2cc(O)ccc12 | 20.6 µM (inactive) | 31.9 µM (inactive) | 43.2 µM (inactive) |  | 19.7 µM (inactive) | 41.6 µM (inactive) |  |  | 21.7 µM (inactive) | 20.6 µM (inactive) | 20.9 µM (inactive) | 11.2 µM (inactive) | 22.6 µM (inactive) | 43.2 | 29.1 µM (inactive) | 32.7 µM (inactive) | 48.8 µM (inactive) | 23.5 µM (inactive) | 
13 | CC1(C)Cc2c(c3ccccc3c3nc4c(nc23)c2c(c3ccccc34)OC(C)(C)C2)O1 | > 100 µM (inactive) | > 100 µM (inactive) | > 100 µM (inactive) | > 100 µM (inactive) | > 100 µM (inactive) | > 100 µM (inactive) | > 100 µM (inactive) | > 100 µM (inactive) | > 100 µM (inactive) | > 100 µM (inactive) | > 100 µM (inactive) | > 100 µM (inactive) | > 100 µM (inactive) | > 100 | > 100 µM (inactive) | > 100 µM (inactive) | > 100 µM (inactive) | > 100 µM (inactive) | 
14 | O=C(O)C1CCCN(CCc2c[nH]c3ccccc23)C1 (configuration not stated) | > 100 µM (inactive) | > 100 µM (inactive) | > 100 µM (inactive) | > 100 µM (inactive) | > 100 µM (inactive) | > 100 µM (inactive) | > 100 µM (inactive) | > 100 µM (inactive) | > 100 µM (inactive) | > 100 µM (inactive) | > 100 µM (inactive) |  | > 100 µM (inactive) | > 100 | > 100 µM (inactive) | > 100 µM (inactive) | > 100 µM (inactive) | > 100 µM (inactive) | 
15 | COc1cc(C(C)c2cc3c(cc2OCCCCCOc2cc4c(cc2C(C)c2cc(OC)c(OC)c(OC)c2)OCO4)OCO3)cc(OC)c1OC (configuration not stated) |  | > 100 µM (inactive) | > 100 µM (inactive) | > 100 µM (inactive) |  |  | > 100 µM (inactive) | > 100 µM (inactive) |  | > 100 µM (inactive) | > 100 µM (inactive) | > 100 µM (inactive) | > 100 µM (inactive) | > 100 | > 100 µM (inactive) | > 100 µM (inactive) | > 100 µM (inactive) | > 100 µM (inactive) | > 100 µM (inactive)
16 | Nc1nc(-c2ccccc2)nc2c1[n+]([O-])c1ccccc1[n+]2[O-] | > 100 µM (inactive) | > 100 µM (inactive) | > 100 µM (inactive) | > 100 µM (inactive) | > 100 µM (inactive) | > 100 µM (inactive) | > 100 µM (inactive) | > 100 µM (inactive) |  | > 100 µM (inactive) | > 100 µM (inactive) | 83.4 µM (inactive) | > 100 µM (inactive) | > 100 | > 100 µM (inactive) |  | > 100 µM (inactive) | > 100 µM (inactive) | 
17 | CC(NC(=O)C(NC(=O)OC(C)(C)C)C(C)C)C(=O)NCC(=O)O (stereo not drawn) (Boc-Val-Ala-Gly-OH; configuration not given here) |  | > 100 µM (inactive) | > 100 µM (inactive) | > 100 µM (inactive) | > 100 µM (inactive) | > 100 µM (inactive) | > 100 µM (inactive) | > 100 µM (inactive) | > 100 µM (inactive) | > 100 µM (inactive) | > 100 µM (inactive) | > 100 µM (inactive) | > 100 µM (inactive) | > 100 | > 100 µM (inactive) |  | > 100 µM (inactive) | > 100 µM (inactive) | > 100 µM (inactive)
